Data from PMC4926109, “Pharmacological targeting of glucose-6-phosphate dehydrogenase in human erythrocytes by Bay 11–7082, parthenolide and dimethyl fumarate” (Scientific Reports, 2016).
Structures can show the parent of a compound that is named as a salt. Where two headings read alike, the source gives them in different places.

What was measured:
[1] = test system: GSH in mature human erythrocytes; assay: Intracellular GSH measurement by HPLC (GS-NEM conjugate); format: cell-based; conditions: for GSH depletion / GSH: 24 h; for GSH: 0.6% Hct, DMSO control 7.52; for IC50: 24 h in Ringer solution, 0.6% Hct (mean GSH 15 μM), read-out: IC50 (GSH depletion)
Experimental: (§1) DMSO-treated erythrocytes served as negative controls. After incubation, erythrocytes were treated with 0.6 mM (final concentration) NEM prepared as a 310 mM stock in H2O. NEM functioned as the best alkylating agent for GSH conjugation to prevent sample manipulation-induced oxidation of GSH. After a 2-min incubation at room temperature, samples were centrifuged at 210 g for 10 min in order to obtain RBC pellets. These were immediately stored at −20 °C until GSH and GSSG analyses were performed. All measurements were carried out within one week after the treatment. GSH and GSSG were measured in the clear supernatant obtained by treatment of 0.1 ml RBCs with 0.12 ml 15% (w/v) trichloroacetic acid. GSH analysis was carried out by high-performance liquid chromatography (HPLC), as recently reported. […] GSSG was measured photometrically by the GSH recycling method with slight modifications. For hemoglobin determination, one aliquot of the RBC suspensions (10 μl) was hemolysed by 1:200 dilution with H2O[62]. The HPLC analyses were carried out with an Agilent series 1100 instrument (Agilent Technologies, Milan, Italy). The photometric analyses were performed with a Jasco V-530 instrument (Jasco Europe s.r.l. Cremella, Como, Italy).

human erythrocytes [2] = conditions: 20 µM
Experimental: (§4) RBC concentrates (0.4% Hct) were treated with varying concentrations of Bay 11–7082, parthenolide or DMF for 24 h or 48 h, then hemolysis was determined. Briefly, after incubation, 600 μl suspension containing 1.2·10^7 RBCs were centrifuged for 4 min at 420 g, 4 °C, and the supernatants were harvested. To quantify hemolysis, the hemoglobin concentration of the supernatant was determined photometrically at 405 nm. The absorption of the supernatant of RBCs lysed in distilled water was defined as 100% hemolysis.

[3] = test system: GSSG in mature human erythrocytes; assay: Intracellular GSSG measurement, photometric GSH recycling method; format: cell-based; conditions: 24 h, 0.6% Hct, DMSO control 0.06
Experimental: as §1

[4] = molecular target: T1, glucose-6-phosphate dehydrogenase (G6PDH) (Homo sapiens, UniProt P11413); assay: G6PDH activity in lysates of inhibitor-treated erythrocytes; format: cell-based; conditions: for EC100 (inhibition of G6PDH activity) / EC50: erythrocytes treated 24 h, 0.6% Hct; for EC50: read-out: EC50 (inhibition of G6PDH activity)
T1 construct: endogenous in cells; host or cells: human erythrocytes (RBC concentrates), treated 24 h, then lysed
T1 sequence (P11413 2-515 limits assumed): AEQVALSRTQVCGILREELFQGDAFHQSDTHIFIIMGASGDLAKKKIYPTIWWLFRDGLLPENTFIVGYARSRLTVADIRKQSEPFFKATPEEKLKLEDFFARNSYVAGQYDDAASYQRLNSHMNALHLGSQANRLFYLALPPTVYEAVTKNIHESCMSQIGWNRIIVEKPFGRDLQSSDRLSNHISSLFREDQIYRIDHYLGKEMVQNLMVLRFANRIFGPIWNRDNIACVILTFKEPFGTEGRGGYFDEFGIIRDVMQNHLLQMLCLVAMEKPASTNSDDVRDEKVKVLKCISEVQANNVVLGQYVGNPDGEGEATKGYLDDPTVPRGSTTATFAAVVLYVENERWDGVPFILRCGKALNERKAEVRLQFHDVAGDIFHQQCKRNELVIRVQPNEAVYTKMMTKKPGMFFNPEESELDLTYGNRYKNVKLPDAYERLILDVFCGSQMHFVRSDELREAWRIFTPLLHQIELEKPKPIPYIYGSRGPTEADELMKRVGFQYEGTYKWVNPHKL
Experimental: (§2) DMSO-treated erythrocytes served as negative controls. Determinations of the enzymatic activities of G6PDH, 6PGDH and GR (+/− FAD) were performed in leukocytes- and platelets-free erythrocyte lysates according to standard biochemical procedures. After 10 min incubation (20 min for GR) at 37 °C the reaction was started by adding substrate or co-factor. Changes in absorbance at 340 nm were recorded at 1 min intervals for 20 min (Infinite 200 Nanoquant spectrophotometer; Tecan, Männedorf, Switzerland). Specific activity of all enzymes was expressed as U/g Hb. The combined activity of G6PDH and 6PGDH was determined by estimating the conversion of NADP^+ to NADPH in the presence of glucose-6-phosphate (600 μM). The activity of 6PGDH alone was then measured by the conversion of NADP^+ to NADPH in the presence of 6-phosphogluconate (600 μM). Finally, G6PDH activity was calculated by subtracting 6PGDH activity from total dehydrogenase activity.

Trypanosoma brucei = assay: In vitro growth inhibition of parasite culture (own unpublished data); format: cell-based; conditions: preliminary work
[5] = test system: mature human erythrocytes; assay: Forward scatter (FSC, GeoMean) by flow cytometry, cell volume / cell shrinkage; format: cell-based; conditions: for GeoMean: Hct 0.6%; for decrease of cell volume (forward scatter): increasing concentrations, 24 h and 48 h, 0.4% Hct
Experimental: (§3) After incubation, 2·10^6 RBCs were washed in 500 μl Annexin-binding buffer. RBC pellets were then vortexed gently to get a homogenous cell suspension. To detect phosphatidylserine (PS) on the outer leaflet of the plasma membrane, these cells were subsequently stained with 32 μl Annexin V-FLUOS at a 1:33 dilution and mixed gently on a vortex mixer. After 20 min incubation in the dark at room temperature, 200 μl of Annexin-binding buffer was added to each sample, thoroughly vortexed to achieve single cell suspensions, and analysed by flow cytometry on a FACS-Calibur (Becton Dickinson, Heidelberg, Germany). Cell volume was determined by forward scatter (FSC), and Annexin V-FLUOS binding was measured in the FL1-channel.

[6] = molecular target: T2, glutathione reductase (GR) (Homo sapiens, UniProt P00390); assay: GR activity (+/- FAD) in lysates of inhibitor-treated erythrocytes; format: cell-based
T2 construct: endogenous in cells; host or cells: human erythrocytes (RBC concentrates), treated 24 h, then lysed
T2 sequence (P00390 1-479 isoform P00390-2): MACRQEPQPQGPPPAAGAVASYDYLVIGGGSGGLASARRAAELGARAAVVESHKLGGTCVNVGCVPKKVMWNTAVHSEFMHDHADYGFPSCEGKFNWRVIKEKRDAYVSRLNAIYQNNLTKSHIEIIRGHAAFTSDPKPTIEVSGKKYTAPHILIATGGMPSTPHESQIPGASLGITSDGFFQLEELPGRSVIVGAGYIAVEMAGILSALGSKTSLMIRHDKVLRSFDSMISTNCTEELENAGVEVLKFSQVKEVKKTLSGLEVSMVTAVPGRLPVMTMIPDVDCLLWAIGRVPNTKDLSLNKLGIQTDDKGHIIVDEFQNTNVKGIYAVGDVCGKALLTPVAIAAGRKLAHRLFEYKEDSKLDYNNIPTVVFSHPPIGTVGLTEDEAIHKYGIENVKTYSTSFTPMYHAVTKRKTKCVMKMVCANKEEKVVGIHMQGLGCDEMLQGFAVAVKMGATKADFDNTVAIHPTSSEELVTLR
Experimental: as §2

[7] = test system: mature human erythrocytes; assay: MCV and MCHC of inhibitor-treated erythrocytes (ADVIA 120 Hematology System); format: cell-based; conditions: Hct 0.6%
Experimental: Erythrocyte concentrates (0.6% Hct), suspended in 30 ml Ringer solution were treated with Bay 11–7082 (20 μM), parthenolide (50 μM) and DMF (140 μM) for 24 h, respectively. DMSO (0.2% (v/v))-treated erythrocytes served as negative controls. After incubation, samples were centrifuged at 210 g for 10 min at room temperature in order to obtain RBC pellets. Ionomycin (0.25 μM)-treated erythrocytes served as positive controls, and were first incubated in Ringer solution in the absence of ionomycin for 21.5 h. Subsequently, the cells were treated with ionomycin for 2.5 h, and the MCV and MCHC values were determined. The MCV and MCHC analysis was carried out with an ADVIA 120 Hematology System Instrument (Siemens, Germany).

human erythrocytes [8] = assay: Eryptosis: Annexin V binding to phosphatidylserine, flow cytometry; format: cell-based; conditions: increasing concentrations, same donors, 24 h and 48 h
Experimental: as §3

6PGDH = molecular target: T3, 6PGDH (Homo sapiens, UniProt P52209); assay: 6PGDH activity in lysates of inhibitor-treated erythrocytes; format: cell-based; conditions: at the concentrations used, data not shown
T3 construct: endogenous in cells; host or cells: human erythrocytes (RBC concentrates), treated 24 h, then lysed
T3 sequence (P52209 2-483 limits assumed): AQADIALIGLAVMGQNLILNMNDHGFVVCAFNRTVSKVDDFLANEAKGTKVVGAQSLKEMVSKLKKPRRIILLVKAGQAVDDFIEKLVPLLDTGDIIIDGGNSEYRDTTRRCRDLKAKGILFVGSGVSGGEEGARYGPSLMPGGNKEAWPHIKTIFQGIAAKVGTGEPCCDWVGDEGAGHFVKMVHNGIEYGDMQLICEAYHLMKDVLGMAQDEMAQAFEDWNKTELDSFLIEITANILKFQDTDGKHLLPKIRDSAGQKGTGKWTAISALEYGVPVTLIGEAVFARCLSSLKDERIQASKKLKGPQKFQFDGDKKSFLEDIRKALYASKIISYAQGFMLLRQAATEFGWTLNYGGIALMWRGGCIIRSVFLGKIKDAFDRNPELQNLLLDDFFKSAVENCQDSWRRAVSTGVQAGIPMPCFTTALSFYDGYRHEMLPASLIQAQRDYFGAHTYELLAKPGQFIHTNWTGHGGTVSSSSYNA
Experimental: as §2

human erythrocytes [9] = assay: Hemolysis (hemoglobin in supernatant, 405 nm); conditions: 24 h / 48 h, compared with Bay 11–7082
Experimental: as §4

[10] = 20 μM, 24 h incubation, blood group A Rhesus +
[11] = 20 μM, 24 h incubation, blood group B Rhesus +
[12] = 20 μM, 24 h incubation, blood group O Rhesus +
[13] = 50 μM, 24 h incubation, blood group A Rhesus +
[14] = 50 μM, 24 h incubation, blood group B Rhesus +
[15] = 50 μM, 24 h incubation, blood group O Rhesus +
[16] = 0.25 μM, 2.5 h incubation (after 21.5 h in Ringer), positive control, blood group A Rhesus +
[17] = 0.25 μM, 2.5 h incubation (after 21.5 h in Ringer), positive control, blood group B Rhesus +
[18] = 0.25 μM, 2.5 h incubation (after 21.5 h in Ringer), positive control, blood group O Rhesus +
[19] = 140 μM, 24 h incubation, blood group A Rhesus +
[20] = 140 μM, 24 h incubation, blood group B Rhesus +
[21] = 140 μM, 24 h incubation, blood group O Rhesus +

## Cc1ccc(S(=O)(=O)/C=C/C#N)cc1 [Bay 11–7082]
[1]; 20 μM final concentration
  GSH depletion: totally deplete GSH
[1]; 20 μM
  GSH: 0.00 nmol/mg Hb
[1]
  IC50: 7.6 µM
Human erythrocytes [2]
  hemolysis (share of total population): approx. 3%
[3]; 20 μM
  GSSG: 0.03 nmol/mg Hb
[4]
  EC100 (inhibition of G6PDH activity): 20
  EC50: 10 µM
Trypanosoma brucei
  in vitro growth inhibitory effect on parasites' culture: significant in vitro growth inhibitory effect
[5]; [10]
  GeoMean: 422.4
[5]; [11]
  GeoMean: 339.3
[5]; [12]
  GeoMean: 410.7
[5]
  decrease of cell volume (forward scatter): marked decrease
[6]; 20 μM, 24 h
  inhibition of GR activity: 100%
[6]; erythrocytes treated 24 h, 0.6% Hct
  EC100 (inhibition of GR activity): 20
[6]; erythrocytes treated 24 h, 0.6% Hct, read-out: EC50 (inhibition of GR activity)
  EC50: 10 µM
[6]; samples previously treated with 20 μM for 24 h
  GR activity after addition of exogenous FAD: did not demonstrate significantly increased GR activity in the presence of FAD
[7]; [10]
  MCHC: 33.9 g/dL
  MCV: 84.1 fL
[7]; [11]
  MCHC: 37 g/dL
  MCV: 78.5 fL
[7]; [12]
  MCHC: 34.1 g/dL
  MCV: 86.3 fL
Human erythrocytes [8]
  eryptosis (Annexin V binding), comparison of the three inhibitors: strongest effect
6PGDH
  inhibitory effect on 6PGDH activity: did not observe any inhibitory effect

## C=C1C(=O)O[C@H]2[C@H]1CC/C(C)=C/CC[C@@]1(C)O[C@@H]21 [Parthenolide, parthenolide]
[1]; 50 μM
  GSH depletion: almost totally deplete GSH
  GSH: 0.30 nmol/mg Hb
[1]; Homo sapiens, Erythrocyte
  IC50: 10 µM
[3]; 50 μM
  GSSG: 0.03 nmol/mg Hb
[4]; 50 μM, 24 h
  G6PDH inhibition: total G6PDH inhibition
  inhibition at 50 µM: 100%
[4]
  EC100 (inhibition of G6PDH activity): 50 µM
  EC50: 12 µM
Human erythrocytes [9]
  ratio of hemolysis to eryptosis: even lower as compared with Bay 11–7082
Trypanosoma brucei
  in vitro growth inhibitory effect on parasites' culture: significant in vitro growth inhibitory effect
[5]; [13]
  GeoMean: 425.24
[5]; [14]
  GeoMean: 418.8
[5]; [15]
  GeoMean: 451.5
[5]
  decrease of cell volume (forward scatter): to a lesser extent
[6]; parthenolide 1–50 μM, 24 h
  ability to inhibit GR activity: Unlike parthenolide, only Bay 11–7082 and DMF were able to inhibit the GR activity
[7]; [13]
  MCHC: 33.5 g/dL
  MCV: 84.1 fL
[7]; [14]
  MCHC: 34.4 g/dL
  MCV: 82.2 fL
[7]; [15]
  MCHC: 33.8 g/dL
  MCV: 87 fL
6PGDH
  inhibitory effect on 6PGDH activity: did not observe any inhibitory effect

## C[C@H](CCC(=O)O)C[C@H](C)C[C@H](C)C(=O)/C=C(\O)[C@H](C)C[C@H](C)C/C=C/[C@@H](C)[C@@H](O)[C@@H](C)[C@@H](O)C[C@@H]1CC[C@@](C)([C@H]2CC[C@@](C)([C@@H](C)O)O2)O1 [Ionomycin]
[5]; [16]
  GeoMean: 209.3
[5]; [17]
  GeoMean: 166.2
[5]; [18]
  GeoMean: 186.3
[7]; [16]
  MCHC: 53 g/dL
  MCV: 73.3 fL
[7]; [17]
  MCHC: 50.4 g/dL
  MCV: 72.2 fL
[7]; [18]
  MCHC: 55.7 g/dL
  MCV: 75.8 fL

## COC(=O)/C=C/C(=O)OC [DMF, dimethyl fumarate]
[1]; 140 μM
  GSH depletion: almost totally deplete GSH
  GSH: 0.17 nmol/mg Hb
[1]; Homo sapiens, Erythrocyte
  IC50: 20 µM
[3]; 140 μM
  GSSG: 0.03 nmol/mg Hb
[4]; 140 μM, 24 h
  G6PDH inactivation: ~ 50%
[4]
  EC50: 140 µM
Human erythrocytes [9]
  ratio of hemolysis to eryptosis: even lower as compared with Bay 11–7082
Trypanosoma brucei
  in vitro growth inhibitory effect on parasites' culture: significant in vitro growth inhibitory effect
[5]; [19]
  GeoMean: 426.7
[5]; [20]
  GeoMean: 427.3
[5]; [21]
  GeoMean: 448
[5]
  decrease of cell volume (forward scatter): to a lesser extent
[6]; 140 μM, 24 h
  inhibition at 140 µM: 60%
[7]; [19]
  MCHC: 33.3 g/dL
  MCV: 85.6 fL
[7]; [20]
  MCHC: 33.5 g/dL
  MCV: 83.5 fL
[7]; [21]
  MCHC: 32.9 g/dL
  MCV: 88.2 fL
6PGDH
  inhibitory effect on 6PGDH activity: did not observe any inhibitory effect
